Each compound was assayed against CDK2/cyclinE (Homo sapiens, UniProt P24941) (assay: Caliper LabChip kinase enzymatic assay, CDK2/cyclinE). Settings: Table 2, class symbols; read-out: CDK2/CycE IC50.
Assay type: biochemical
Experimental: Kinase enzymatic reactions were performed in 384-well microplates using a 12-channel Caliper LabChip instrument as a detection device. […] As substrate and product are separated, two peaks of fluorescence are observed. Change in the relative fluorescence intensity of the substrate and product peaks is the parameter measured, reflecting enzyme activity. In the presence of an inhibitor, the ratio between product and substrate is altered. The signal of the product decreases, while the signal of the substrate increases.
Potential inhibitor compounds (as HCl salts) were tested using 12-point dose response curves in single point at the Km, for ATP. The IC50 of each compound was determined using GraphPad Prism.

SMILES	IC50 [nM]
CCC(C)[C@H]1CNC(=O)c2cc3cnc(Nc4ccc(N5CCNCC5)cn4)nc3n21 (some centres unmarked) [Compound 17]	1000 to 100000
O=C1NCC2(CCCC2)n2c1cc1cnc(Nc3ccc(N4CCC(N5CCOCC5)CC4)cn3)nc12 [Compound 39]	1000 to 100000
O=C1NCC2(CCCC2)n2c1cc1cnc(Nc3ccc(N4CCOCC4)nn3)nc12 [Compound 33]	1000 to 100000
O=C1NCC2(CCCC2)n2c1cc1cnc(Nc3ccc(N4CCNCC4)cn3)nc12 [Compound 30]	1000 to 100000
CC(C)CN1CCN(c2ccc(Nc3ncc4cc5n(c4n3)C3(CCCC3)CNC5=O)nc2)CC1 [Compound 36]	1000 to 100000
CC(C)CC1CNC(=O)c2cc3cnc(Nc4ccc(N5CCNCC5)cn4)nc3n21 (centres unmarked) [Compound 46]	1000 to 100000
O=C1NCC2(CCCC2)n2c1cc1cnc(Nc3ccc(N4CCCCC4)cn3)nc12 [Compound 38]	1000 to 100000
O=C1NCCn2c1cc1cnc(Nc3ccc(N4CCNCC4)cn3)nc12 [Compound 3]	> 100000
CC(C)C1CNC(=O)c2cc3cnc(Nc4ccc(N5CCNCC5)cn4)nc3n21 (centres unmarked) [Compound 8]	1000 to 100000
CN1C[C@H](C(C)(C)C)n2c(cc3cnc(Nc4ccc(N5CCNCC5)cn4)nc32)C1=O [Compound 21]	1000 to 100000
O=C1NCC2(CCCC2)n2c1cc1cnc(Nc3ccc(N4CCOCC4)cn3)nc12 [Compound 32]	1000 to 100000
CC(C)[C@H]1CNC(=O)c2cc3cnc(Nc4ccc(N5CCNCC5)cn4)nc3n21 [Compound 10]	1000 to 100000
CN1CCN(c2ccc(Nc3ncc4cc5n(c4n3)C3(CCCC3)CNC5=O)nc2)CC1 [Compound 29]	1000 to 100000
CCC(C)[C@H]1CNC(=O)c2cc3cnc(Nc4ccc(N5CCN(C)CC5)cn4)nc3n21 (some centres unmarked) [Compound 16]	1000 to 100000
CC(C)[C@@H]1CNC(=O)c2cc3cnc(Nc4ccc(N5CCNCC5)cn4)nc3n21 [Compound 9]	1000 to 100000
O=C1NCC2(CCCC2)n2c1cc1cnc(Nc3ccc(N4CCSCC4)cn3)nc12 [Compound 41]	1000 to 100000
CC(C)N1CCN(c2ccc(Nc3ncc4cc5n(c4n3)C3(CCCC3)CNC5=O)nc2)CC1 [Compound 35]	1000 to 100000

Continued, values first:

IC50 [nM]	SMILES
1000 to 100000	O=C1NCC2(CCCC2)n2c1cc1cnc(Nc3ccc(N4CCC(N5CCCCC5)CC4)cn3)nc12 [Compound 40]
1000 to 100000	CC1(C)CNC(=O)c2cc3cnc(Nc4ccc(N5CCNCC5)cn4)nc3n21 [Compound 26]
1000 to 100000	CC(C)[C@@H]1Cn2c(cc3cnc(Nc4ccc(N5CCNCC5)cn4)nc32)C(=O)N1 [Compound 25]
1000 to 100000	CN1CCN(c2ccc(Nc3ncc4cc5n(c4n3)[C@@H](c3ccccc3)CNC5=O)nc2)CC1 [Compound 22]
1000 to 100000	CC(C)[C@H]1Cn2c(cc3cnc(Nc4ccc(N5CCNCC5)cn4)nc32)C(=O)N1 [Compound 24]
1000 to 100000	CC(C)C[C@H]1CNC(=O)c2cc3cnc(Nc4ccc(N5CCN(C)CC5)cn4)nc3n21 [Compound 12]
10 to 100	O=C1NCC2(CCCC2)n2c1cc1cnc(Nc3ccc(N4CCOCC4)cc3)nc12 [Compound 34]
1000 to 100000	CC1CN(c2ccc(Nc3ncc4cc5n(c4n3)C3(CCCC3)CNC5=O)nc2)CC(C)O1 (centres unmarked) [Compound 37]
1000 to 100000	CC(C)C[C@H]1CNC(=O)c2cc3cnc(Nc4ccc(N5CCNCC5)cn4)nc3n21 [Compound 13]
100 to 1000	CC(C)(C)[C@H]1CNC(=O)c2cc3cnc(Nc4ccc(N5CCNCC5)cn4)nc3n21 [Compound 20]
100 to 1000	O=C1NC[C@H](c2ccccc2)n2c1cc1cnc(Nc3ccc(N4CCNCC4)cn3)nc12 [Compound 23]

Same assay, conditions: enzyme 0.22 nM, (at the Km for ATP), one hour; 12-point dose response; compounds as HCl salts; read-out: CDK2/cyclinE IC50

IC50 [nM]	SMILES
> 100000	O=C1NCCn2c1cc1cnc(Nc3ccc(N4CCNCC4)cn3)nc12 [Compound 3]

Source: patent publication US20130237533A1, “CDK Inhibitors” (G1 THERAPEUTICS, INC., priority 2010, published 2013)
